PMC8717171 (Saudi Journal of Biological Sciences, 2021)
Values after ≈ are worked out from the molar mass of the structure shown.

Key:
mice = assay: Peripheral anti-nociception, acetic acid-induced writhing; format: in vivo, Mus musculus; settings: for Number of Writhing (Mean ± SEM): counted for 15 min, n = 5
rat hind paw oedema = assay: Anti-inflammatory activity, carrageenan-induced rat hind paw oedema; format: in vivo, Sprague Dawley rat; settings: test compounds 100 mg/kg; for Mean paw edema (volume in ml) ± SEM: n = 5
Bacillus cereus = assay: Disc diffusion; format: cell-based; settings: standard Ciprofloxacin 5 µg/disc
Bacillus megaterium = assay: Disc diffusion; format: cell-based; settings: standard Ciprofloxacin 5 µg/disc
Bacillus subtilis = assay: Disc diffusion; format: cell-based; settings: standard Ciprofloxacin 5 µg/disc
Sarcina lutea = assay: Disc diffusion; format: cell-based; settings: standard Ciprofloxacin 5 µg/disc
Staphylococcus aureus = assay: Disc diffusion; format: cell-based; settings: standard Ciprofloxacin 5 µg/disc
Escherichia coli = assay: Disc diffusion; format: cell-based; settings: standard Ciprofloxacin 5 µg/disc
Pseudomonas aeruginosa = assay: Disc diffusion; format: cell-based; settings: standard Ciprofloxacin 5 µg/disc
Salmonella paratyphi = assay: Disc diffusion; format: cell-based; settings: standard Ciprofloxacin 5 µg/disc
Salmonella typhi = assay: Disc diffusion; format: cell-based; settings: standard Ciprofloxacin 5 µg/disc
Shigella boydii = assay: Disc diffusion; format: cell-based; settings: standard Ciprofloxacin 5 µg/disc
Shigella dysenteriae = assay: Disc diffusion; format: cell-based; settings: standard Ciprofloxacin 5 µg/disc
Vibrio mimicus = assay: Disc diffusion; format: cell-based; settings: standard Ciprofloxacin 5 µg/disc
Vibrio parahaemolyticus = assay: Disc diffusion; format: cell-based; settings: standard Ciprofloxacin 5 µg/disc
Saccharomyces cerevisiae = assay: Disc diffusion; format: cell-based; settings: standard Ciprofloxacin 5 µg/disc
Candida albicans = assay: Disc diffusion; format: cell-based; settings: standard Ciprofloxacin 5 µg/disc
Aspergillus niger = assay: Disc diffusion; format: cell-based; settings: standard Ciprofloxacin 5 µg/disc
[1] = Antioxidant activity, DPPH free radical scavenging; format: biochemical; settings: absorbance at 517 nm
acetylcholinesterase = biological target: T1, acetylcholinesterase (Rattus norvegicus, UniProt P37136); assay: In-vitro anti-acetylcholinesterase activity; format: biochemical
T1 sequence (P37136 32-614): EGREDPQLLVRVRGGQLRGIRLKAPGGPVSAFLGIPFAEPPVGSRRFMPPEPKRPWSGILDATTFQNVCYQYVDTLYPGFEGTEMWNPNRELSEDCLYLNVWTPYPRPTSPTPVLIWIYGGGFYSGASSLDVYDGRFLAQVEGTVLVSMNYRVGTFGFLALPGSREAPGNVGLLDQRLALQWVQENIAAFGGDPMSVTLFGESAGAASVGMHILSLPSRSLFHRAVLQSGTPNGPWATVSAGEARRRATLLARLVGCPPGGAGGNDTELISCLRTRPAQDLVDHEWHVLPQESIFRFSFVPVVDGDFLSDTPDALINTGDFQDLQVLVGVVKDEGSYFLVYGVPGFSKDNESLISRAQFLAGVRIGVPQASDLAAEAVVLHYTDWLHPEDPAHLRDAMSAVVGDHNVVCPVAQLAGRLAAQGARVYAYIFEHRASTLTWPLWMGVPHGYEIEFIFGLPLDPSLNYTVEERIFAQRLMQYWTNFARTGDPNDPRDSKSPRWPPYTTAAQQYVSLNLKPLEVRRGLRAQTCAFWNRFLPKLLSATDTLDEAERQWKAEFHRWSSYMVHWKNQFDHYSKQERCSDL

## c1ccc(COCc2nc3ccccc3[nH]2)cc1 [Compound 6, 2-((benzyloxy)-methyl)-1H-benzimidazole]
mice; 25 mg/kg
  % of Inhibition of Writhing: 37.69%
  Number of Writhing (Mean ± SEM): 16.7 ± 0.889
mice; 50 mg/kg
  % of Inhibition of Writhing: 55.60%
  Number of Writhing (Mean ± SEM): 11.9 ± 0.458
Rat hind paw oedema; 1st hour
  % Paw edema inhibition: 22.88%
  Mean paw edema (volume in ml) ± SEM: 0.906 ± 0.047 mL
Rat hind paw oedema; 2nd hour
  % Paw edema inhibition: 23.77%
  Mean paw edema (volume in ml) ± SEM: 0.93 ± 0.028 mL
Rat hind paw oedema; 3rd hour
  % Paw edema inhibition: 25.19%
  Mean paw edema (volume in ml) ± SEM: 0.98 ± 0.018 mL
Rat hind paw oedema; 4th hour
  % Paw edema inhibition: 31.91%
  Mean paw edema (volume in ml) ± SEM: 0.96 ± 0.039 mL
Bacillus cereus
  Diameter of zone of inhibition (mm): 8 mm
Bacillus megaterium
  Diameter of zone of inhibition (mm): 7 mm
Bacillus subtilis
  Diameter of zone of inhibition (mm): 10 mm
Sarcina lutea
  Diameter of zone of inhibition (mm): 7 mm
Staphylococcus aureus
  Diameter of zone of inhibition (mm): 7 mm
Escherichia coli
  Diameter of zone of inhibition (mm): 0 mm
Pseudomonas aeruginosa
  Diameter of zone of inhibition (mm): 7 mm
Salmonella paratyphi
  Diameter of zone of inhibition (mm): 8 mm
Salmonella typhi
  Diameter of zone of inhibition (mm): 8 mm
Shigella boydii
  Diameter of zone of inhibition (mm): 7 mm
Shigella dysenteriae
  Diameter of zone of inhibition (mm): 0 mm
Vibrio mimicus
  Diameter of zone of inhibition (mm): 9 mm
Vibrio parahaemolyticus
  Diameter of zone of inhibition (mm): 10 mm
Saccharomyces cerevisiae
  Diameter of zone of inhibition (mm): 7 mm
Candida albicans
  Diameter of zone of inhibition (mm): 0 mm
Aspergillus niger
  Diameter of zone of inhibition (mm): 0 mm
[1]
  IC50 (antioxidant activity, DPPH scavenging): 579.19 µg/mL (≈ 2430 µM)
acetylcholinesterase
  IC50: 124 µM
